Results: the supplement of paper PMC8671470

Legend:
Conditions in all cases: 72 h
[1] = tested on: BV-173; test: cell viability (% survival relative to DMSO control, bortezomib = 0%); higher = less cytotoxic
In short: (§1)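 Percent survival is reported as the mean of duplicate wells. Cells from 10 AML and 5 CML lines were plated in 384-well plates containing compounds at 1, 10, 100, 1000 or 10000 nM and kept for 72 h at 37 °C in 5% CO2. Readout used CellTiter-Glo luminescence, scaled so that vehicle equals 100% and a 10 µM positive control equals 0%.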

[2] = tested on: LAMA-84; test: as above
In short: as §1

[3] = tested on: MV4-11; test: as above
In short: as §1

[4] = tested on: Mono-Mac-6; test: as above
In short: as §1

[5] = tested on: ML-2; test: as above
In short: as §1

[6] = tested on: KCL-22; test: as above
In short: as §1

[7] = tested on: NOMO-1; test: as above
In short: as §1

[8] = tested on: KU-812; test: as above
In short: as §1

[9] = tested on: THP-1; test: as above
In short: as §1

[10] = tested on: K-562; test: as above
In short: as §1

[11] = tested on: MOLM-13; test: as above
In short: as §1

[12] = tested on: KG-1; test: as above
In short: as §1

[13] = tested on: HEL; test: as above
In short: as §1

[14] = tested on: HL-60; test: as above
In short: as §1

[15] = tested on: SHI-1; test: as above
In short: as §1

[16] = tested on: BV-173
In short: (§2)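 Fifteen myeloid leukaemia cell lines were seeded in RPMI 1640 at densities titrated to the linear growth range and placed in 384-well plates with acoustically pre-printed compounds at five tenfold doses from 1 to 10,000 nM, in duplicate. After 72 h at 37 °C with 5% CO2, luminescent ATP viability was normalised to vehicle and to a positive control at 10 µM, and curves were fitted with a four-parameter log-logistic model. The IC50 was obtained from these fits.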

[17] = tested on: LAMA-84
In short: as §2

[18] = tested on: MV4-11
In short: as §2

[19] = tested on: Mono-Mac-6
In short: as §2

[20] = tested on: ML-2
In short: as §2

[21] = tested on: KCL-22
In short: as §2

[22] = tested on: NOMO-1
In short: as §2

[23] = tested on: KU-812
In short: as §2

[24] = tested on: THP-1
In short: as §2

[25] = tested on: K-562
In short: as §2

[26] = tested on: MOLM-13
In short: as §2

[27] = tested on: KG-1
In short: as §2

[28] = tested on: HEL
In short: as §2

[29] = tested on: HL-60
In short: as §2

[30] = tested on: SHI-1
In short: as §2

N=C(N)c1ccc(N=NNc2ccc(C(=N)N)cc2)cc1 [Diminazene]
cell viability [%]
Conditions | 1 nM | 10 nM | 100 nM | 1000 nM | 10000 nM
[1] | 104 | 103 | 106 | 106 | 103
[2] | 105 | 103 | 108 | 105 | 98.3
[3] | 113 | 100 | 94.6 | 92.2 | 77.9
[4] | 97 | 100 | 107 | 105 | 98.2
[5] | 104 | 98.7 | 100 | 106 | 93.7
[6] | 102 | 96.6 | 114 | 84.4 | 72.7
[7] | 106 | 99 | 104 | 102 | 86.9
[8] | 89.2 | 100 | 95.5 | 101 | 85.7
[9] | 105 | 99.7 | 107 | 103 | 86.3
[10] | 102 | 99.3 | 119 | 94.5 | 96.7
[11] | 94.4 | 98.1 | 101 | 73.7 | 93.9
[12] | 115 | 109 | 114 | 97.7 | 88.9
[13] | 103 | 109 | 111 | 93.8 | 111
[14] | 83 | 102 | 123 | 116 | 96.6
[15] | 100 | 102 | 116 | 95.3 | 95.8

Conditions | IC50 (cell viability) [µM]
[16] | > 10
[17] | > 10
[18] | > 10
[19] | > 10
[20] | > 10
[21] | > 10
[22] | > 10
[23] | > 10
[24] | > 10
[25] | > 10
[26] | > 10
[27] | > 10
[28] | > 10
[29] | > 10
[30] | > 10

OCCN(CCO)c1nc(N2CCCCC2)c2nc(N(CCO)CCO)nc(N3CCCCC3)c2n1 [Dipyridamole]
cell viability [%]
Conditions | 1 nM | 10 nM | 100 nM | 1000 nM | 10000 nM
[1] | 90.4 | 98.2 | 92.4 | 78.6 | 38.8
[2] | 97.9 | 99.6 | 108 | 90.3 | 83.7
[3] | 95.8 | 95 | 101 | 94.4 | 43.5
[4] | 98 | 103 | 98.5 | 97.1 | 77.4
[5] | 93.4 | 104 | 123 | 103 | 66.4
[6] | 114 | 95.3 | 98.9 | 106 | 65
[7] | 98 | 101 | 107 | 92.3 | 81.9
[8] | 87.9 | 98.7 | 90.7 | 86.5 | 69.4
[9] | 96.6 | 100 | 107 | 90.8 | 81.5
[10] | 108 | 89.5 | 105 | 85.6 | 67
[11] | 116 | 117 | 97.5 | 83.5 | 97.8
[12] | 94.7 | 112 | 101 | 104 | 90.2
[13] | 87.6 | 101 | 102 | 105 | 77.7
[14] | 129 | 65.2 | 105 | 61.6 | 93.8
[15] | 104 | 113 | 110 | 92.2 | 80.9

Conditions | IC50 (cell viability) [µM]
[16] | 3.55
[17] | > 10
[18] | 8.82
[19] | > 10
[20] | > 10
[21] | > 10
[22] | > 10
[23] | > 10
[24] | > 10
[25] | > 10
[26] | > 10
[27] | > 10
[28] | > 10
[29] | > 10
[30] | > 10

Cc1cc(O)c2c(c1)C(=O)c1cc(O)cc(O)c1C2=O [Emodin]
cell viability [%]
Conditions | 1 nM | 10 nM | 100 nM | 1000 nM | 10000 nM
[1] | 88.8 | 111 | 99.8 | 74.6 | 89.8
[2] | 102 | 100 | 102 | 96.5 | 112
[3] | 92.8 | 85.6 | 93 | 99 | 100
[4] | 92.1 | 106 | 97.3 | 102 | 81.7
[5] | 97.8 | 104 | 101 | 89.5 | 98.2
[6] | 103 | 97.9 | 96.6 | 98.5 | 96
[7] | 99.1 | 100 | 103 | 104 | 112
[8] | 95.1 | 100 | 104 | 89.8 | 80.8
[9] | 90.6 | 97.3 | 106 | 90.5 | 105
[10] | 109 | 94.2 | 102 | 102 | 112
[11] | 67 | 101 | 112 | 95.2 | 71.4
[12] | 90.7 | 89.7 | 96.1 | 97.3 | 94.9
[13] | 105 | 114 | 98.5 | 89.8 | 115
[14] | 90.5 | 97.8 | 124 | 88.2 | 109
[15] | 88.6 | 97.8 | 98.3 | 94.5 | 93.5

Conditions | IC50 (cell viability) [µM]
[16] | > 10
[17] | > 10
[18] | > 10
[19] | > 10
[20] | > 10
[21] | > 10
[22] | > 10
[23] | > 10
[24] | > 10
[25] | > 10
[26] | > 10
[27] | > 10
[28] | > 10
[29] | > 10
[30] | > 10
